Activity calls are given as the source filed them. No rule for the calls is given here.
System: CCRIS mutagenicity, Ames/micronucleus/aberration tests
Assay: CCRIS mutagenicity studies

Compound: CCCCNC(=O)n1c(NC(=O)OC)nc2ccccc21
- mutagenic call (End Point: IN VIVO CHROMOSOMAL ABERRATIONS, Test System: BONE MARROW CELLS, Species: MOUSE, Strain/Sex: SWISS/MALE, Route: DIET (ORAL)): active; positive at all dose levels (structural and ploidy changes, robertsonian translo
- mutagenic call (Test System: AMES SALMONELLA TYPHIMURIUM, Strain/Indicator: TA97, Metabolic Activation: HAMSTER, LIVER, S-9, AROCLOR 1254 (10%), Method: PREINCUBATION): inactive; negative
- mutagenic call (Test System: AMES SALMONELLA TYPHIMURIUM, Strain/Indicator: TA97, Metabolic Activation: HAMSTER, LIVER, S-9, AROCLOR 1254 (30%), Method: PREINCUBATION): inactive; negative
- mutagenic call (Test System: AMES SALMONELLA TYPHIMURIUM, Strain/Indicator: TA97, Metabolic Activation: NONE, Method: PREINCUBATION): inactive; negative
- mutagenic call (Test System: AMES SALMONELLA TYPHIMURIUM, Strain/Indicator: TA97, Metabolic Activation: RAT, LIVER, S-9, AROCLOR 1254 (10%), Method: PREINCUBATION): inactive; negative
- mutagenic call (Test System: AMES SALMONELLA TYPHIMURIUM, Strain/Indicator: TA97, Metabolic Activation: RAT, LIVER, S-9, AROCLOR 1254 (30%), Method: PREINCUBATION): inactive; negative
- mutagenic call (Test System: AMES SALMONELLA TYPHIMURIUM, Strain/Indicator: TA97A, Metabolic Activation: NONE, Method: STANDARD PLATE): inactive; negative
- mutagenic call (Test System: AMES SALMONELLA TYPHIMURIUM, Strain/Indicator: TA97A, Metabolic Activation: PLANT, HOMOGENATE, S-14, Method: STANDARD PLATE): inactive; negative
- mutagenic call (Test System: AMES SALMONELLA TYPHIMURIUM, Strain/Indicator: TA97A, Metabolic Activation: S-9, Method: STANDARD PLATE): inactive; negative
- mutagenic call (Test System: AMES SALMONELLA TYPHIMURIUM, Strain/Indicator: TA98, Metabolic Activation: HAMSTER, LIVER, S-9, 1254 (10%), Method: PREINCUBATION): inactive; negative
- mutagenic call (Test System: AMES SALMONELLA TYPHIMURIUM, Strain/Indicator: TA98, Metabolic Activation: HAMSTER, LIVER, S-9, AROCLOR 1254 (30%), Method: PREINCUBATION): inactive; negative
- mutagenic call (Test System: AMES SALMONELLA TYPHIMURIUM, Strain/Indicator: TA98, Metabolic Activation: NONE, Method: PREINCUBATION): inactive; negative
- mutagenic call (Test System: AMES SALMONELLA TYPHIMURIUM, Strain/Indicator: TA98, Metabolic Activation: PLANT, HOMOGENATE, S-14, Method: STANDARD PLATE): inactive; negative
- mutagenic call (Test System: AMES SALMONELLA TYPHIMURIUM, Strain/Indicator: TA98, Metabolic Activation: RAT, LIVER, S-9, AROCLOR 1254 (10%), Method: PREINCUBATION): inactive; negative
- mutagenic call (Test System: AMES SALMONELLA TYPHIMURIUM, Strain/Indicator: TA98, Metabolic Activation: RAT, LIVER, S-9, AROCLOR 1254 (30%), Method: PREINCUBATION): inactive; negative
- mutagenic call (Test System: AMES SALMONELLA TYPHIMURIUM, Strain/Indicator: TA98, Metabolic Activation: RAT, LIVER, S-9, AROCLOR 1254, Method: STANDARD PLATE): inactive; negative
- mutagenic call (Test System: AMES SALMONELLA TYPHIMURIUM, Strain/Indicator: TA98, Metabolic Activation: RAT, LIVER, S-9, AROCLOR, Method: STANDARD PLATE): inactive; negative
- mutagenic call (Test System: AMES SALMONELLA TYPHIMURIUM, Strain/Indicator: TA98, Metabolic Activation: S-9, Method: STANDARD PLATE): inactive; negative
- mutagenic call (Test System: AMES SALMONELLA TYPHIMURIUM, Strain/Indicator: TA100, Metabolic Activation: HAMSTER, LIVER, S-9, AROCLOR 1254 (10%), Method: PREINCUBATION): inactive; negative
- mutagenic call (Test System: AMES SALMONELLA TYPHIMURIUM, Strain/Indicator: TA100, Metabolic Activation: HAMSTER, LIVER, S-9, AROCLOR 1254 (30%), Method: PREINCUBATION): inactive; negative
- mutagenic call (Test System: AMES SALMONELLA TYPHIMURIUM, Strain/Indicator: TA100, Metabolic Activation: NONE, Method: PREINCUBATION): inactive; negative
- mutagenic call (Test System: AMES SALMONELLA TYPHIMURIUM, Strain/Indicator: TA100, Metabolic Activation: PLANT, HOMOGENATE, S-14, Method: STANDARD PLATE): inactive; negative
- mutagenic call (Test System: AMES SALMONELLA TYPHIMURIUM, Strain/Indicator: TA100, Metabolic Activation: RAT, LIVER, S-9, AROCLOR 1254 (10%), Method: PREINCUBATION): inactive; negative
- mutagenic call (Test System: AMES SALMONELLA TYPHIMURIUM, Strain/Indicator: TA100, Metabolic Activation: RAT, LIVER, S-9, AROCLOR 1254 (30%), Method: PREINCUBATION): inactive; negative
- mutagenic call (Test System: AMES SALMONELLA TYPHIMURIUM, Strain/Indicator: TA100, Metabolic Activation: RAT, LIVER, S-9, AROCLOR 1254, Method: STANDARD PLATE): inactive; negative
- mutagenic call (Test System: AMES SALMONELLA TYPHIMURIUM, Strain/Indicator: TA100, Metabolic Activation: RAT, LIVER, S-9, AROCLOR, Method: STANDARD PLATE): inactive; negative
- mutagenic call (Test System: AMES SALMONELLA TYPHIMURIUM, Strain/Indicator: TA100, Metabolic Activation: S-9, Method: STANDARD PLATE): inactive; negative
- mutagenic call (Test System: AMES SALMONELLA TYPHIMURIUM, Strain/Indicator: TA1535, Metabolic Activation: HAMSTER, LIVER, S-9, AROCLOR 1254 (10%), Method: PREINCUBATION): inactive; negative
- mutagenic call (Test System: AMES SALMONELLA TYPHIMURIUM, Strain/Indicator: TA1535, Metabolic Activation: HAMSTER, LIVER, S-9, AROCLOR 1254 (30%), Method: PREINCUBATION): inactive; negative
- mutagenic call (Test System: AMES SALMONELLA TYPHIMURIUM, Strain/Indicator: TA1535, Metabolic Activation: NONE, Method: PREINCUBATION): inactive; negative
- mutagenic call (Test System: AMES SALMONELLA TYPHIMURIUM, Strain/Indicator: TA1535, Metabolic Activation: PLANT, HOMOGENATE, S-14, Method: STANDARD PLATE): inactive; negative
- mutagenic call (Test System: AMES SALMONELLA TYPHIMURIUM, Strain/Indicator: TA1535, Metabolic Activation: RAT, LIVER, S-9, AROCLOR 1254 (10%), Method: PREINCUBATION): inactive; negative
- mutagenic call (Test System: AMES SALMONELLA TYPHIMURIUM, Strain/Indicator: TA1535, Metabolic Activation: RAT, LIVER, S-9, AROCLOR 1254 (30%), Method: PREINCUBATION): inactive; negative
- mutagenic call (Test System: AMES SALMONELLA TYPHIMURIUM, Strain/Indicator: TA1535, Metabolic Activation: RAT, LIVER, S-9, AROCLOR 1254, Method: STANDARD PLATE): inactive; negative
- mutagenic call (Test System: AMES SALMONELLA TYPHIMURIUM, Strain/Indicator: TA1535, Metabolic Activation: RAT, LIVER, S-9, AROCLOR, Method: STANDARD PLATE): inactive; negative
- mutagenic call (Test System: AMES SALMONELLA TYPHIMURIUM, Strain/Indicator: TA1535, Metabolic Activation: S-9, Method: STANDARD PLATE): inactive; negative
- mutagenic call (Test System: AMES SALMONELLA TYPHIMURIUM, Strain/Indicator: TA1537, Metabolic Activation: HAMSTER, LIVER, S-9, AROCLOR 1254 (10%), Method: PREINCUBATION): inactive; negative
- mutagenic call (Test System: AMES SALMONELLA TYPHIMURIUM, Strain/Indicator: TA1537, Metabolic Activation: HAMSTER, LIVER, S-9, AROCLOR 1254 (30%), Method: PREINCUBATION): inactive; negative
- mutagenic call (Test System: AMES SALMONELLA TYPHIMURIUM, Strain/Indicator: TA1537, Metabolic Activation: NONE, Method: PREINCUBATION): inactive; negative
- mutagenic call (Test System: AMES SALMONELLA TYPHIMURIUM, Strain/Indicator: TA1537, Metabolic Activation: NONE, Method: STANDARD PLATE): inactive; negative
- mutagenic call (Test System: AMES SALMONELLA TYPHIMURIUM, Strain/Indicator: TA1537, Metabolic Activation: RAT, LIVER, S-9, AROCLOR 1254 (10%), Method: PREINCUBATION): inactive; negative
- mutagenic call (Test System: AMES SALMONELLA TYPHIMURIUM, Strain/Indicator: TA1537, Metabolic Activation: RAT, LIVER, S-9, AROCLOR 1254 (30%), Method: PREINCUBATION): inactive; negative
- mutagenic call (Test System: AMES SALMONELLA TYPHIMURIUM, Strain/Indicator: TA1537, Metabolic Activation: RAT, LIVER, S-9, AROCLOR 1254, Method: STANDARD PLATE): inactive; negative
- mutagenic call (Test System: AMES SALMONELLA TYPHIMURIUM, Strain/Indicator: TA1537, Metabolic Activation: RAT, LIVER, S-9, AROCLOR, Method: STANDARD PLATE): inactive; negative
- mutagenic call (Test System: E. COLI, Strain/Indicator: WP2 UVRA, Metabolic Activation: NONE, Method: FLUCTUATION): active; positive

Compound: CC(C)NCC(O)COc1cccc2[nH]ccc12 (stereo not drawn)
- mutagenic call (Test System: AMES SALMONELLA TYPHIMURIUM, Strain/Indicator: TA98, Metabolic Activation: NONE): inactive; negative
- mutagenic call (Test System: AMES SALMONELLA TYPHIMURIUM, Strain/Indicator: TA98, Metabolic Activation: RAT, LIVER, S-9, AROCLOR 1254): inactive; negative
- mutagenic call (Test System: AMES SALMONELLA TYPHIMURIUM, Strain/Indicator: TA100, Metabolic Activation: NONE): inactive; negative
- mutagenic call (Test System: AMES SALMONELLA TYPHIMURIUM, Strain/Indicator: TA100, Metabolic Activation: RAT, LIVER, S-9, AROCLOR 1254): inactive; negative
- mutagenic call (Test System: AMES SALMONELLA TYPHIMURIUM, Strain/Indicator: TA1535, Metabolic Activation: NONE): inactive; negative
- mutagenic call (Test System: AMES SALMONELLA TYPHIMURIUM, Strain/Indicator: TA1535, Metabolic Activation: RAT, LIVER, S-9, AROCLOR 1254): inactive; negative
- mutagenic call (Test System: AMES SALMONELLA TYPHIMURIUM, Strain/Indicator: TA1537, Metabolic Activation: NONE): inactive; negative
- mutagenic call (Test System: AMES SALMONELLA TYPHIMURIUM, Strain/Indicator: TA1537, Metabolic Activation: RAT, LIVER, S-9, AROCLOR 1254): inactive; negative

— PubChem BioAssay AID1259407 (Chemical Carcinogenesis Research Information System (CCRIS), 2018)
